# Patent EP0660840B1 (priority 1992, dated 1994)
# Tests used:
# [1] = test system: DOCA-salt hypertensive rats; assay: Antihypertensive effect in DOCA-salt hypertensive rats; type: in vivo; details: 10 mg/Kg p.o., in PEG 400; DOCA-salt hypertensive rat model
# Procedure: The antihypertensive effect can be determined in desoxycorticosterone acetate (DOCA)-salt hypertensive rats.
# DOCA-salt hypertensive rats (280-380 g) are prepared by the standard method. Rats underwent a unilateral nephrectomy and one week later are implanted with silastic pellets containing 100 mg/kg of DOCA. The rats are maintained on 1% NaCl/0.2% KCI drinking water for three to five weeks until sustained hypertension is established. The antihypertensive activity is evaluated at this time.
# Two days before an experiment, the rats are anesthetized with methoxyflurane and instrumented with catheters in the femoral artery to measure arterial blood pressure. Forty-eight hours later, baseline arterial pressure and heart rate are recorded during a 1 hour period. The test compound or vehicle is then administered and the same cardiovascular parameters are monitored for an additional 5 hours.
# plasma ANF = assay: Effect on rat plasma ANF concentration during continuous ANF infusion (radioimmunoassay); type: in vivo, Male Sprague-Dawley rats; details: about 10 mg/kg p.o., in 10% ethanol/polyethylene glycol 400; conscious rats infused with ANF 450 ng/kg/min i.v.
# Procedure: The effect of the compounds of the invention on rat plasma ANF concentration can be determined as follows:
# Male Sprague-Dawley rats (275-390 g) are anesthetized with ketamine (150 mg/kg)/acepromazine (10%) and instrumented with catheters in the femoral artery and vein to obtain blood samples and infuse ANF, respectively. The rats are tethered with a swivel system and are allowed to recover for 24 hours before being studied in the conscious, unrestrained state.
# In this assay, plasma ANF levels are determined in the presence and absence of NEP inhibition. On the day of study, all rats are infused continuously with ANF at 450 ng/kg/min. i.v. for the entire 5 hours of the experiment. Sixty minutes after beginning the infusion, blood samples for baseline ANF measurements are obtained (time 0) and the rats are then randomly divided into groups treated with the test compound or vehicle. Additional blood samples are taken 30, 60, 120, 180 and 240 minutes after administration of the test compound.
# Plasma concentrations are determined by a specific radioimmunoassay. […] The supernatant is decanted and the pellets counted in a gamma counter. […] Plasma ANF levels are expressed as a percent of those measured in vehicle-treated animals which received ANF alone (450 ng/kg/min i.v.).
smiles,measurement,setting,value
"O=P(CN[C@@H](Cc1ccc(-c2ccccc2)cc1)c1nnn[nH]1)(Oc1ccccc1)Oc1ccccc1 [Example 3, (S)-[2-Biphenyl-4-yl-1-(1H-tetrazol-5-yl)-ethylamino]-methylphosphonic acid diphenyl ester]",blood pressure,[1],significant reduction
same,plasma ANF levels,plasma ANF,significant increases
